From patent publication EP0422134B1, “5-HT SELECTIVE AGENTS” (ABBOTT LABORATORIES, priority 1988, dated 1990)
Where a name gives a salt, the structure may show the parent alone.

How the values were obtained:
[1] = molecular target: 5-HT1; assay: Radioligand binding, tritiated 5-HT, rat frontal cortex homogenate (total 5-HT1); conditions: displacement of tritiated 5-HT
Description: Male Sprague-Dawley rats (150-200 g) were sacrificed and the brains were rapidly removed and placed on ice. The frontal cortext, including the portion immediately above the striatum and part of the parietal cortex were dissected. Tissues from 6-10 rats were pooled and homogenized in at least 40 volumes of tris-HCI buffer (0.05 M, pH 7.4) using a Brinkman Polytron (setting 5 for 20 seconds). This homogenate was centrifuged (48,000 G for 10 minutes), the pellet resuspended, and the process repeated three more times. Between the second and third washes, the tissue homogenate was incubated for 10 minutes at 37°C. The final pellet was resuspended in 100 volumes of TRIS buffer for use in the binding assay.
Radioligand binding affinity for subtypes of the serotonin receptor was determined by the method of Pedigo, Yamamura, and Nelson, op. cit. Tissue homogenate (0.5 mL) from rat frontal cortex, together with various concentrations of tritiated 5-HT and test compounds were added to glass tubes containing modified tris-HCI buffer to obtain, in each case, a final volume of 2 mL and having the following compositions: 5.7 mM ascorbate, 10 micromolar pargyline, 4mM CaCl2, 50 mM TRIS buffer; pH 7.4 at 37°C.
Each mixture was incubated for 15 minutes at 37°C and then vacuum filtered through Whatman GF/B filters followed by three 5 mL washes with cold TRIS buffer. Radioactivity was extracted overnight in 3 mL of scintillation liquid and measured by liquid scintillation spectrometry (50% efficiency).
Binding parameters for saturation and drug displacement studies were calculated by Scatchard analysis and from Hill plots, respectively.

[2] = test system: spontaneously hypertensive (SH) rat; assay: Blood pressure in spontaneously hypertensive rats (tail cuff), oral dosing; type: in vivo; conditions: % change in blood pressure
Description: In another study, a group of spontaneously hypertensive male rats were trained to be restrained in a wire mesh cylinder in a warming box, at least two training cycles being conducted before testing. The rats were warmed for about one-hour prior to blood pressure measurement, the warming box being maintained at a constant temperature of 36°C. An occluding cuff attached to a programmed sphygmomanometer was placed near the base of the tail of each rat and the pressure of the cuff was increased automatically from 0 to 250 millimeters of mercury at a rate of 10 mm Hg pressure per second. The total time for each cycle of inflation and deflation of the cuff was 50 seconds and the interval between cycles was one minute A photocell, placed distally to the cuff, recorded the pulses due to the forward motion of blood flow with each heart beat. As the pressure in the cuff increased, the pulse disappeared completely at the point where the cuff pressure equalled and exceeded the arterial blood pressure. The pulse reappeared during deflation at approximately the same pressure. Five interference free signals were recorded for each rat. Rats with a blood pressure of 180 mm Hg or more during the control period were used in the study.
Blood pressure and heart rate readings were recorded on a Model VII Grass polygraph at various intervals after administration of the test compound. […] For the in vivo test data, SHR refers to spontaneously hypertensive rats, dosed in milligrams per kilogram (mpk), with the data being expressed in the Table in +% changes at a particular dosage range.

For COc1cccc2c1C1CCN(CCCN3C(=O)CC4(CCCC4)CC3=O)CC1C2 (stereo not drawn) [Example 43, cis-2-(3-(3,3-tetramethylene)glutarimidyl)propyl-5-methoxy-2,3,4,4a,9,9a-hexahydro-1H-indeno[2,1-c] pyridine hydrochloride], the IC50 [1] was 3120 nM and the “In Vivo Data SHR (mpk, p.o. dose)” value ([2]; 30 mg/kg p.o.) was -17.5% at 30 mg/kg.
COc1c(Cl)ccc2c1C1CN(CCCCN3C(=O)CC4(CCCC4)CC3=O)CC1C2 (centres unmarked) [Example 8, 2-(4-(3,3-tetramethylene)glutarimidyl)butyl-5-chroro-4-methoxy-1,2,3,3a,8,8a-hexahydroindeno[1,2-c] pyrrole hydrochloride] was tested, and the IC50 [1] was 714 nM and the “In Vivo Data SHR (mpk, p.o. dose)” value ([2]; 30 mg/kg p.o.) was -37% at 30 mg/kg.
For COc1cccc2c1C1CN(CCCN3C(=O)CC4(CCCC4)CC3=O)CC1C2 (centres unmarked) [Example 26, 2-(3-(3,3-tetramethylene)glutarimidyl)propyl-4-methoxy-1,2,3,3a,8,8a-hexahydroindeno[1,2-c]pyrrole hydrochloride], the IC50 [1] was 3300 nM and the “In Vivo Data SHR (mpk, p.o. dose)” value ([2]; 30 mg/kg p.o.) was -23% at 30 mg/kg.
For COc1cccc2c1C1CN(C/C=C/CN3C(=O)CC4(CCCC4)CC3=O)CC1C2 (stereo not drawn) [Example 30, 2-(4-(3,3-tetramethylene)glutarimidyl)-trans-but-2-enyl-4-methoxy-1,2,3,3a,8,8a-hexahydroindeno [1,2-c]pyrrole hydrochloride], the IC50 [1] was 533 nM and the “In Vivo Data SHR (mpk, p.o. dose)” value ([2]; 30 mg/kg p.o.) was -11% at 30 mg/kg.
COc1cccc2c1C1CN(CCCCN3C(=O)CC4(CCCC4)CC3=O)CC1C2 (centres unmarked) [Example 7, 2-(4-(3,3-tetramethylene)glutarimidyl)butyl-4-methoxy-1,2,3,3a,8,8a-hexahydoindeno[1,2-c]pyrrole hydrochloride] was tested, and the IC50 [1] was 218 nM, the “In Vivo Data SHR (mpk, p.o. dose)” value ([2]; 10 mg/kg p.o.) was -14% and the “In Vivo Data SHR (mpk, p.o. dose)” value ([2]; 30 mg/kg p.o.) was -28%.
In the case of COc1cccc2c1C1CN(CCCCN3C(=O)c4ccccc4S3(=O)=O)CC1C2 (centres unmarked) [Example 21, 4-Methoxy-2-(4-(2-(1,2-benzisothiazolin-3-one1,1-dioxide))butyl)1,2,3,3a,8,8a-hexahydroindeno-[1,2-c]pyrrole hydrochloride], the IC50 [1] is reported as 438 nM, the “In Vivo Data SHR (mpk, p.o. dose)” value ([2]; 10 mg/kg p.o.) is reported as -16% and the “In Vivo Data SHR (mpk, p.o. dose)” value ([2]; 30 mg/kg p.o.) is reported as -28%.
In the case of COc1cccc2c1C1CN(CCCCN3C(=O)CC(C)(C)CC3=O)CC1C2 (centres unmarked) [Example 23, 2-(4-(3,3-dimethyl)glutarimidyl)butyl-4-methoxy-1,2,3,3a,8,8a-hexahydroindeno-[1,2-c]pyrrole hydrochloride], the IC50 [1] is reported as 1730 nM and the “In Vivo Data SHR (mpk, p.o. dose)” value ([2]; 30 mg/kg p.o.) is reported as -12% at 30 mg/kg.
Molecule COc1cccc2c1[C@H]1CCN(CCCN3C(=O)CC4(CCCC4)CC3=O)C[C@@H]1C2 (relative stereo) [Example 50, trans-2-(3-(3,3-tetramethylene)glutarimidyl)propyl-5-methoxy-2,3,4,4a,9,9a-hexahydro-1 H-indeno [2,1-c]pyridine hydrochloride] has an IC50 [1] of 279 nM.
For O=C1CC2(CCCC2)CC(=O)N1CCCCN1CC2Cc3ccc(Cl)c(O)c3C2C1 (centres unmarked) [Example 52, 2-(4-(3,3-Tetramethylene)glutarimidyl)butyl-5-chloro-4-hydroxy-1,2,3,3a,8,8a-hexahydroindeno[1,2-c]-pyrrole hydrobromide], the IC50 [1] was 1840 nM and the “In Vivo Data SHR (mpk, p.o. dose)” value ([2]; 30 mg/kg p.o.) was -23% at 30 mg/kg.
COc1cccc2c1C1CN(CCCCN3C(=O)c4ccccc4C3=O)CC1C2 (centres unmarked) [Example 24, 4-Methoxy-2-(4-(2-phthalimido)butyl)-1,2,3,3a,8,8a-hexahydroindeno[1,2-c]pyrrole hydrochloride] showed an IC50 [1] of 404 nM.
COc1cccc2c1C1CCN(CCNC(=O)c3ccc(F)cc3)CC1C2 (stereo not drawn) [Example 58, trans-2-(2-(4-fluorobenzamido)ethyl)-5-methoxy-2,3,4,4a,9.9a-hexahydro-1H-indeno[2,1-c]pyridine hydrochloride] was tested, and the IC50 [1] was 43 nM and the “In Vivo Data SHR (mpk, p.o. dose)” value ([2]; 10 mg/kg p.o.) was -18% at 10 mg/kg.
Work on O=C1CC2(CCCC2)CC(=O)N1CCCCN1CC2Cc3cccc(O)c3C2C1 (centres unmarked) [Example 20, 2-(4-(3,3-tetramethylene)glutarimidyl)butyl-4-hydroxy-1,2,3,3a,8,8a-hexahydroindeno[1,2-c]pyrrole hydrobromide] yielded an IC50 [1] of 1840 nM.
COc1cccc2c1C1CN(C[C@@H]3COc4ccccc4O3)CC1C2 (stereo partly drawn) [Example 32, 2R-(1,4-benzodioxanyl-2-methyl)-4-methoxy-1,2,3,3a,8,8a-hexahydroindeno[1,2-c]pyrrole hydrochloride] was tested, and the IC50 [1] was 992 nM.
For Br.O=C(NCCN1CC2Cc3cccc(O)c3C2C1)c1ccc(F)cc1 (centres unmarked) [Example 19, 4-Hydroxy-2-(2-(4-fluorobenzamido)ethyl)-1,2,3,3a,8,8a-hexahydroindeno[1,2-c]pyrrole hydrobromide], the IC50 [1] was 262 nM and the “In Vivo Data SHR (mpk, p.o. dose)” value ([2]; 30 mg/kg p.o.) was -9% at 30 mg/kg.
In the case of COc1cccc2c1C1CCN(CCCCN3C(=O)CC4(CCCC4)CC3=O)CC1C2 (centres unmarked) [Example 44, hydrochloride], the IC50 [1] is reported as 505 nM.
In the case of COc1cccc2c1[C@H]1CCN(CCCCN3C(=O)c4ccccc4S3(=O)=O)C[C@@H]1C2 (relative stereo) [Example 57, trans-2(4-(2-(1,2-benzisothiazolin-3-one-1,1-dioxyde))butyl)-5-methoxy-2,3,4,4a,9,9a-hexahydro-1H-indeno[2,1-c]pyridine hydrochloride], the IC50 [1] is reported as 26 nM and the “In Vivo Data SHR (mpk, p.o. dose)” value ([2]; 30 mg/kg p.o.) is reported as -17% at 30 mg/kg.
For COc1cccc2c1[C@H]1CCN(CCCN3C(=O)c4ccccc4S3(=O)=O)C[C@@H]1C2 (relative stereo) [Example 56, trans-2(3-(2-(1,2-benzisothiazolin-3-one-1,1-dioxyde))propyl)-5-methoxy-2,3,4,4a,9,9a-hexahydro-1 H-indeno[2,1-c]pyridine hydrochloride], the IC50 [1] was 22 nM and the “In Vivo Data SHR (mpk, p.o. dose)” value ([2]; 10 mg/kg p.o.) was -18% at 10 mg/kg.
In the case of COc1cccc2c1C1CN(C/C=C\CN3C(=O)CC4(CCCC4)CC3=O)CC1C2 (stereo not drawn) [Example 29, 2-(4-(3,3-tetramethylene)glutarimidyl)-cis-but-2-enyl-4-methoxy-1,2,3,3a,8,8a-hexahydroindeno [1,2-c] pyrrole hydrochloride], the IC50 [1] is reported as 3630 nM and the “In Vivo Data SHR (mpk, p.o. dose)” value ([2]; 30 mg/kg p.o.) is reported as -19% at 30 mg/kg.
O=C1CC2(CCCC2)CC(=O)N1CCCN1CC2Cc3cccc(O)c3C2C1 (centres unmarked) [Example 27, 2-(3-(3,3-tetramethylene)glutarimidyl)propyl-4-hydroxy-1,2,3,3a,8,8a-hexahydroindeno[1,2-c]pyrrole hydrobromide] was tested, and the IC50 [1] was 3320 nM.
For COc1cccc2c1C1CN(CCCCCN3C(=O)CC4(CCCC4)CC3=O)CC1C2 (centres unmarked) [Example 28, 2-(5-(3,3-tetramethylene)glutarimidyl)pentyl-4-methoxy-1,2,3,3a,8,8a-hexahydroindeno[1,2-c]pyrrole hydrochloride], the IC50 [1] was 722 nM.
COc1cccc2c1C1CN(C[C@H]3COc4ccccc4O3)CC1C2 (stereo partly drawn) [Example 31, 2S-(1,4-benzodioxanyl-2-methyl)-4-methoxy-1,2,3,3a,8,8a-hexahydroindeno[1,2-c]pyrrole hydrochloride] was tested, and the IC50 [1] was 457 nM.
With O=C1c2ccccc2S(=O)(=O)N1CCCCN1CC2Cc3cccc(O)c3C2C1 (centres unmarked) [Example 22, 4-Hydroxy-2-(4-(2-(1.2-benzisothiazolin-3-one-1,1-dioxide))butyl)-1,2,3,3a,8,8a-hexahydroindeno-[1,2-c]pyrrole hydrochloride] the IC50 [1] was 1090 nM and the “In Vivo Data SHR (mpk, p.o. dose)” value ([2]; 30 mg/kg p.o.) was -16% at 30 mg/kg.
COc1cccc2c1[C@H]1CCN(CCCCN3C(=O)CC4(CCCC4)CC3=O)C[C@@H]1C2 (relative stereo) [Example 51, trans-2-(4-(3,3-tetramethylene)glutarimidyl)butyl-5-methoxy-2,3,4,4a,9,9a-hexahydro-1H-indeno [2,1-c] pyridine hydrochloride] was tested, and the IC50 [1] was 60 nM and the “In Vivo Data SHR (mpk, p.o. dose)” value ([2]; 30 mg/kg p.o.) was -36% at 30 mg/kg.
COc1cccc2c1C1CN(CCCCN3C(=O)C4C5C=CC(C6C=CC65)C4C3=O)CC1C2 (centres unmarked) [Example 54, 4-Methoxy-2-(4-(3a,4,4a,6a,7,7a-hexahydro-4,7-etheno-1H-cyclobut[flisoindol-1,3-dionyl)-butyl)-1,2,3,3a,8,8a-hexahydroindeno-[1,2-c]pyrrole hydrochloride] gave an IC50 [1] of 283 nM.
